In US20090155828A1, “METHODS OF DETECTING PROSTATE CANCER” (The Burnham Institute for Medical Research, priority 2001, published 2009):
“Also recorded” adds a separate entry of the source.

Tests used:
tumor cells in culture = conditions: cited from earlier work; for Apoptosis of tumor cells: tumor / cancer cells in culture
LNCaP cells = test: Androgen effects on LNCaP cell proliferation; type: cell-based, human; conditions: six days
Procedure: LNCaP cell proliferation was measured in the presence of either 0.1 nM or 100 nM DHT. Cells were plated in 24 well plates in RPMI 1640 with no phenol red and supplemented with charcoal stripped FBS and allowed to adhere overnight. The following day media was replaced, with or without DHT, and cells were grown for six days with media change every second day. Cells were counted using a hemocytometer.
In order to assess the effects of androgen (DHT) treatment on cell proliferation, LNCaP cells were plated in either 150 mm dishes (Falcon) or in 12 well tissue culture plates (Falcon) in complete medium. After 24 hr, the medium was replaced with RPMI containing no phenol red and supplemented with 10% charcoal stripped fetal bovine serum and the appropriate concentration of DHT. The medium was replaced every 48 hr for six days. At the indicated time points, the cells were removed by treatment with trypsin-EDTA and counted with a hemocytometer.
(§1) It is well established that androgen (DHT) specifically, promotes proliferation of LNCaP cells in vitro. […] LNCaP cell proliferation was measured in the presence of either 0.1 nM or 100 nM DHT. […] Cells were counted using a hemocytometer. On day six, the aggregate serine hydrolase activity profiles were also measured. […] Specific labeling was assessed by comparison to a preheated control.

[1] = test system: fatty acid synthase (FAS); test: Fatty acid synthase activity in DHT treated LNCaP cells, fp-PEG-Tamra profile; type: cell-based, human; conditions: six days
Procedure: (§2) Serine hydrolase activity profiles of the prostate cell lines were measured using the labeled fluorophosphonate probe fp-PEG-Tamra. Briefly, 40 μg of either the soluble or insoluble fractions were treated with 2 μM fp-PEG-Tamra for 1 hr at RT. The labeling reactions were stopped by the addition of Laemmli buffer followed by boiling for 5 min. As a control for non-specific reaction of the probe, a duplicate sample was boiled for 10 min prior to labeling with fp-PEG-Tamra. The labeled samples were resolved by 10% SDS-PAGE and visualized by scanning with a laser at 605 nm.
as §1, with “vitro. While the direct cause for this is not completely understood, it is clear that changes in gene and protein levels are associated with proliferation. As such, it was hypothesized that androgen treatment of LNCaP cells would change the aggregate activity profile.” for “vitro.”

[2] = test system: prolyl endopeptidase (PEP); test: Prolyl endopeptidase activity in DHT treated LNCaP cells, fp-PEG-Tamra profile; type: cell-based, human; conditions: six days
Procedure: as §2
as §1, with “vitro. While the direct cause for this is not completely understood, it is clear that changes in gene and protein levels are associated with proliferation. As such, it was hypothesized that androgen treatment of LNCaP cells would change the aggregate activity profile.” for “vitro.”

PSA = PSA activity in DHT treated LNCaP cells, fp-PEG-Tamra profile; type: cell-based, human; conditions: six days
Procedure: as §2
as §1, with “vitro. While the direct cause for this is not completely understood, it is clear that changes in gene and protein levels are associated with proliferation. As such, it was hypothesized that androgen treatment of LNCaP cells would change the aggregate activity profile.” for “vitro.”

[3] = test system: N-acyl peptide hydrolase (NAPH); test: N-acyl peptide hydrolase activity in DHT treated LNCaP cells, fp-PEG-Tamra profile; type: cell-based, human; conditions: 100 nM DHT, six days
Procedure: as §2
as §1, with “vitro. While the direct cause for this is not completely understood, it is clear that changes in gene and protein levels are associated with proliferation. As such, it was hypothesized that androgen treatment of LNCaP cells would change the aggregate activity profile.” for “vitro.”

PSA mRNA = PSA mRNA level in DHT treated LNCaP cells by real time PCR; type: cell-based, human
Procedure: (§3) The serine hydrolase activity levels in the four prostate cell lines, or the change in serine hydrolase activity with DHT treatment, as assessed by fp-PEG-Tamra, was compared to the mRNA level of the cognate enzymes. Total RNA was isolated with Trizol (Life Technologies) from LNCaP, LNCaP treated with DHT, DU-145, PC-3 or PrEC cell lines. Reverse transcription was performed with Superscript II. Real time PCR was performed using the Roche SYBER Green DNA kit and a Roche LightCycler according to manufacturer instructions. Primers (20mers) were used at a final concentration of […], and 45 cycles were used.

PEP mRNA = PEP mRNA level in DHT treated LNCaP cells by real time PCR; type: cell-based, human; conditions: 100 nM DHT
Procedure: as §3

NAPH mRNA = NAPH mRNA level in DHT treated LNCaP cells by real time PCR; type: cell-based, human; conditions: 100 nM DHT
Procedure: as §3

[4] = test system: DPP-like activity in LNCaP soluble fraction; test: Inhibition of DPP-like activity with isoleucine thiozolidide, fp-PEG-Tamra labeling, LNCaP soluble fraction; type: biochemical, human; conditions: for Reaction of fp-PEG-Tamra probe with DPP-like protein (words): LNCaP lysate preincubated with IT, 97 kDa band
Procedure: (§4) . Each lysate was pre-incubated with 100 TM IT for 20 min at RT. Residual DPP-like activity was evaluated by treatment with 2 TM fp-PEG-Tamma, as described above, followed by resolution with 10% SDS-PAGE and comparison to samples not treated with IT. Inhibition of DPP activity was quantified by measuring the fluorescence intensity of the conjugate between fp-PEG-TAMRA and the DPP. The activity of a non-DPP enzyme was used to standardize the specific effects if IT.
(§5) One member of this family, DPP-IV, has been investigated as a target in type II diabetes. As a result of those investigations, several peptidic antagonists of DPP IV have been synthesized (Pederson et al., Diabetes 47:1253-58; 1998; Pauly et al., Metabolism 48(3):385-389, 1999). […]. The sensitivity of enzyme activity to IT was tested in the soluble fractions of the LNCaP, DU-145, and PC-3 prostate cancer cells lines. Each lysate was pre-incubated with 100 TM IT for 20 min at RT. Residual DPP-like activity was evaluated by the addition of 2 TM fp-PEG-Tamra, followed by resolution with 10% SDS-PAGE and comparison to the non-treated samples. […]. […] Specific labeling was determined by comparison to preheated controls.
In each of the three prostate cancer cell lines, a novel protein with homology to DPP was identified using MS/MS. The similarity to DPP was based on fold and function assignment of the corresponding cDNA and its cognate protein (Zhang et al., Prot. Sci. 8:1104-1115, 1999). […].

[5] = test system: non-DPP proteins (other serine hydrolase activity); test: Specificity of IT: fp-PEG-Tamra labeling of non-DPP serine hydrolases in prostate cancer cell lysates; type: biochemical, human; conditions: soluble fractions of LNCaP, DU-145, PC-3, 100 TM IT
Procedure: as §4, §5
In each of the three prostate cancer cell lines, a novel protein with homology to DPP was identified using MS/MS. […]

tumor growth = conditions: cited from earlier work
[6] = listed as isoleucine thiazolidide

In the case of `C=C1C(=O)OC(CCCCCCCC)C1C(=O)O` (centres unmarked) [Compound C75], the “Cytotoxicity to cancer cells” value (tumor cells in culture) is given as “cytotoxic” and the “Apoptosis of tumor cells” value (tumor cells in culture) is given as “in some cases induce apoptosis”.

In the case of `C[C@]12CCC(=O)C[C@@H]1CC[C@@H]1[C@@H]2CC[C@]2(C)[C@@H](O)CC[C@@H]12` [DHT], the LNCaP cell proliferation (LNCaP cells; 0.1 nM DHT) was “promoted cell proliferation”, the LNCaP cell proliferation (LNCaP cells; 100 nM DHT) was “cell proliferation was inhibited” and the “Change of FAS activity” value ([1]; 0.1 nM DHT) was “increased three-fold to five-fold”. For the same compound, the “Change of FAS activity” value ([1]; 100 nM DHT) was “increased”, the “Change of PEP activity” value ([2]; 0.1 nM DHT) was “decreased” and the “Change of PEP activity” value ([2]; 100 nM DHT) was “dramatic drop”. For the same compound, the “Change of PSA activity” value (PSA; 0.1 nM DHT) was “no noticeable change”, the “Change of PSA activity” value (PSA; 100 nM DHT) was “increased” and the “Change of NAPH activity” value [3] was “dramatic drop”. The “Change of PSA mRNA level” value (PSA mRNA; 0.1 nM DHT, six days) was “increased over eleven-fold”, the “Change of PSA mRNA level” value (PSA mRNA; 100 nM DHT) was “large increase” and the “Change of PEP mRNA level” value (PEP mRNA) was “increased”. The “Change of NAPH mRNA level” value (NAPH mRNA) was “slightly greater than two-fold”.

For `CC[C@H](C)[C@H](N)C(=O)N1CCSC1` [IT, isoleucine thiazolidide], the “Reaction of fp-PEG-Tamra probe with DPP-like protein (words)” value [4] was “inhibited”, the “Reaction of fp-PEG-Tamra probe with DPP-like protein (words)” value [4, 6] was “dramatically reduced” and the DPP-like activity inhibited ([4]; LNCaP soluble fraction, pre-incubated with 100 TM IT 20 min RT, 2 TM fp-PEG-Tamra) was 63%. The “Inhibition of non-DPP proteins / other serine hydrolase activity” value [5] was “No inhibition; also recorded: no other serine hydrolase activity was reduced” and the “Inhibition of non-DPP proteins / other serine hydrolase activity” value [5, 6] was “No other enzyme activities were inhibited”.

For `C/C=C/C/C=C/CCC(=O)[C@H]1O[C@H]1C(N)=O` [cerulenin], the “Cytotoxicity to cancer cells” value (tumor cells in culture) is given as “cytotoxic”, the “Apoptosis of tumor cells” value (tumor cells in culture) is given as “induces apoptosis; also recorded: in some cases induce apoptosis” and the “Tumor growth in nude mice” value (tumor growth) is given as “inhibit tumor growth”.
